As a reminder, the inhibition is the relative decrease from the control value, in per cent.

Each structure is given as a SMILES string. Bounds are passed on as bounds.

One assay concerns the target T1, CYP4A (Homo sapiens, UniProt Q02928).
T1 construct: host or cells: bactosome, i.e. bacterial membrane preparation (own knowledge of the term)
T1 sequence (Q02928 5-519): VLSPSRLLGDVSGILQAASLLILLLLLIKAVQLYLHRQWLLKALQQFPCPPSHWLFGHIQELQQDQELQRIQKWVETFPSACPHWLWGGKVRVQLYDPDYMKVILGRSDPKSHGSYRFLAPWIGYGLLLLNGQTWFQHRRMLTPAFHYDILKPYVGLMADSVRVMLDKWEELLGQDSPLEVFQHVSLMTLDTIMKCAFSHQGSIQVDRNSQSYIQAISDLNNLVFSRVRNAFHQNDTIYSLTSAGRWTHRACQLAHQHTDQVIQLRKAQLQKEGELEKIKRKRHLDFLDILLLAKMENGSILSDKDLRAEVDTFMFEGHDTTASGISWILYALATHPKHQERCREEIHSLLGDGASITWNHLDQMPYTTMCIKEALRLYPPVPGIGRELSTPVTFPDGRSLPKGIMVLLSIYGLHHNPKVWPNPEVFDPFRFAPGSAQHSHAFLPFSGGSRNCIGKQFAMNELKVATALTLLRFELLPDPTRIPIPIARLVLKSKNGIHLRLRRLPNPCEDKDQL
In words: CYP4A enzyme assay (Luciferin-ME luminescence, CYP4A bactosome). The class given is biochemical. The settings on record: compound concentration 5 μM; 25%-50%; read-out: % Inhibition 25%-50%. The method, then: A commercially available reagent was used for the reagent used in the experiment, and it was manufactured and used if necessary. The device used for activity measurement was EnVision of PerkinElmer or SpectraMax of MOLECULAR DEVICES.
First, CYP4A bactosome and synthetic compound (5 μM) were mixed in assay buffer (100 mM KPO4, 0.1% BSA, 1 mM DTT) in a 384-well plate (white opaque ploystyrene nontreated flat-bottom well), and then reacted at room temperature for 15 minutes. After adding 5 mM Luciferin-ME and NADPH Regeneration system (10× sol.A, 20× sol.B in assay buffer, Cat. Number: V865B, Promega), leave it at room temperature for 30 minutes to allow the CYP4A reaction to occur sufficiently, by adding the Luciferin Detection reagent, the CYP4A reaction was finished, luminescence reaction was induced, and the reaction was carried out at room temperature for 15 minutes. The degree of inhibition of CYP4A activity was measured by comparing the luminescence values from each well with a microplate reader.
Turning to `Cc1cc(N2CCN(C(=O)C3CCCN(S(=O)(=O)c4ccc(Br)cc4)C3)CC2)c2ccccc2n1` (stereo not drawn) [Formula 40, (1-((4-bromophenyl)sulfonyl)piperidin-3-yl) (4-(2-methylquinolin-4-yl)piperazin-1-yl)methanone], the inhibition at 5 µM was in the range of 25 to 50%.
The same measure, in the same setting: in the case of `COC(=O)c1ccc(S(=O)(=O)N2CCCC(C(=O)N3CCN(c4cc(C)nc5ccccc45)CC3)C2)cc1` (stereo not drawn) [Formula 37, methyl 4-(3-(1-(2-methylquinolin-4-yl)piperazine-4-carbonyl)piperidin-1-ylsulfonyl)benzoate] it was 25 to 50%.

Staying with this assay, now noted: compound concentration 5 μM; 75% or more; read-out: % Inhibition 75% or more.
As for `O=C(C1CCCN(S(=O)(=O)c2cccc(-c3cncnc3)c2)C1)N1CCN(c2ccnc3cc(F)ccc23)CC1` (stereo not drawn) [Formula 112, (4-(7-fluoroquinolin-4-yl)piperazin-1-yl) (1-(3-(pyrimidin-5-yl)phenylsulfonyl)piperidin-3-yl) methanone], the inhibition at 5 µM was no less than 75%.
Still for that read-out and setting: in the case of `CC(=O)Nc1ccc(S(=O)(=O)N2CCCC(C(=O)N3CCN(c4cc(C)nc5ccccc45)CC3)C2)cc1` (stereo not drawn) [Formula 15, N-(4-(3-(1-(2-methylquinolin-4-yl)piperazine-4-carbonyl)piperidin-1-ylsulfonyl)phenyl) acetamide] it was no less than 75%.
The same measure, in the same setting: in the case of `Cc1cc(N2CCN(C(=O)C3CCCN(S(=O)(=O)c4ccc([N+](=O)[O-])cc4)C3)CC2)c2ccccc2n1` (stereo not drawn) [Formula 18, (4-(2-methylquinolin-4-yl)piperazin-1-yl) (1-(4-nitrophenylsulfonyl)piperidin-3-yl) methanone] it was no less than 75%.
Turning to `CS(=O)(=O)c1ccc(S(=O)(=O)N2CCCC(C(=O)N3CCN(c4ccnc5cc(Cl)ccc45)CC3)C2)cc1` (stereo not drawn) [Formula 11, (4-(7-chloroquinolin-4-yl)piperazin-1-yl) (1-(4-(methylsulfonyl)phenylsulfonyl)piperidin-3-yl) methanone], the inhibition at 5 µM was no less than 75%.
Still for that read-out and setting: the result for `O=C(C1CCCN(S(=O)(=O)c2ccc(-c3ccccc3)cc2)C1)N1CCN(c2ccnc3cc(F)ccc23)CC1` (stereo not drawn) [Formula 55, (4-(7-fluoroquinolin-4-yl)piperazin-1-yl) (1-(4-phenylbenzenesulfonyl)piperidin-3-yl) methanone] reads no less than 75%; that for `O=C([C@@H]1CCCN(S(=O)(=O)c2ccc(-c3ccncc3)cc2)C1)N1CCN(c2ccnc3cc(F)ccc23)CC1` [Formula 107, (R)-(4-(7-fluoroquinolin-4-yl)piperazin-1-yl) (1-(4-(pyridin-4-yl)phenylsulfonyl)piperidin-3-yl) methanone], no less than 75%.
`O=C(C1CCCN(S(=O)(=O)c2cccc(O)c2)C1)N1CCN(c2ccnc3ccccc23)CC1` (stereo not drawn) [Formula 95, (1-(3-hydroxyphenylsulfonyl)piperidin-3-yl) (4-(quinolin-4-yl)piperazin-1-yl) methanone]: the inhibition at 5 µM was no less than 75%.
Same read-out and setting: in the case of `O=C(C1CCCN(S(=O)(=O)c2cccc(-c3cccnc3)c2)C1)N1CCN(c2ccnc3cc(F)ccc23)CC1` (stereo not drawn) [Formula 110, (4-(7-fluoroquinolin-4-yl)piperazin-1-yl) (1-(3-(pyridin-3-yl)phenylsulfonyl)piperidin-3-yl) methanone] it was no less than 75%.
Still for that read-out and setting: in the case of `CN(C)c1ccc(S(=O)(=O)N2CCCC(C(=O)N3CCN(c4ccnc5cc(Cl)ccc45)CC3)C2)cc1` (stereo not drawn) [Formula 4, (4-(7-chloroquinolin-4-yl)piperazin-1-yl) (1-((4-(dimethylamino)phenyl)sulfonyl)piperidin-3-yl) methanone] it was no less than 75%; in that of `O=C(C1CCCN(S(=O)(=O)c2ccc(O)cc2)C1)N1CCN(c2ccnc3cc(F)ccc23)CC1` (stereo not drawn) [Formula 43, (4-(7-fluoroquinolin-4-yl)piperazin-1-yl) (1-((4-hydroxyphenyl)sulfonyl)piperidin-3-yl) methanone], no less than 75%; in that of `O=C(C1CCCN(S(=O)(=O)c2ccc(O)cc2)C1)N1CCN(c2ccnc3ccccc23)CC1` (stereo not drawn) [Formula 76, (1-((4-hydroxyphenyl)sulfonyl)piperidin-3-yl) (4-(quinolin-4-yl)piperazin-1-yl) methanone], no less than 75%.
As for `O=C(C1CCCN(S(=O)(=O)c2cccc(-c3ccncc3)c2)C1)N1CCN(c2ccnc3cc(F)ccc23)CC1` (stereo not drawn) [Formula 109, (4-(7-fluoroquinolin-4-yl)piperazin-1-yl) (1-(3-(pyridin-4-yl)phenylsulfonyl)piperidin-3-yl) methanone], the inhibition at 5 µM was no less than 75%.
The same measure, in the same setting: the result for `CC(=O)Nc1ccc(S(=O)(=O)N2CCC[C@H](C(=O)N3CCN(c4ccnc5cc(F)ccc45)CC3)C2)cc1` [Formula 47, (S)—N-(4-(3-(1-(7-fluoroquinolin-4-yl)piperazine-4-carbonyl)piperidin-1-ylsulfonyl)phenyl) acetamide] reads no less than 75%; that for `O=C(C1CCCN(S(=O)(=O)c2ccc([N+](=O)[O-])cc2)C1)N1CCN(c2ccnc3cc(Cl)ccc23)CC1` (stereo not drawn) [Formula 117, (4-(7-chloroquinolin-4-yl)piperazin-1-yl) (1-(4-nitrophenylsulfonyl)piperidin-3-yl) methanone], no less than 75%.

The assay is the same for the next values; noted with them: compound concentration 5 μM; '50%-75%'; read-out: % Inhibition 50%-75%.
In the case of `Cc1cc(N2CCN(C(=O)C3CCCN(S(=O)(=O)c4ccc(-c5cncnc5)cc4)C3)CC2)c2ccccc2n1` (stereo not drawn) [Formula 103, (4-(2-methylquinolin-4-yl)piperazin-1-yl) (1-((4-(pyrimidin-5-yl)phenyl)sulfonyl)piperidin-3-yl) methanone], the inhibition at 5 µM fell in the range of 50 to 75%.
On the same count and under the same terms, the result for `Cc1cc(N2CCN(C(=O)C3CCCN(S(=O)(=O)c4cccc(F)c4)C3)CC2)c2ccccc2n1` (stereo not drawn) [Formula 27, (1-(3-fluorophenylsulfonyl)piperidin-3-yl) (4-(2-methylquinolin-4-yl)piperazin-1-yl) methanone] reads 50 to 75%.
For the compound `Cc1cc(N2CCN(C(=O)C3CCCN(S(=O)(=O)c4ccc(Cl)cc4)C3)CC2)c2ccccc2n1` (stereo not drawn) [Formula 25, (1-(4-chlorophenylsulfonyl)piperidin-3-yl) (4-(2-methylquinolin-4-yl)piperazin-1-yl) methanone], the inhibition at 5 µM lay in the range of 50 to 75%.
On to `O=C(C1CCCN(S(=O)(=O)c2ccc(Br)cc2)C1)N1CCN(c2ccnc3ccccc23)CC1` (stereo not drawn) [Formula 85, (1-(4-bromophenylsulfonyl)piperidin-3-yl) (4-(quinolin-4-yl)piperazin-1-yl) methanone], for which the inhibition at 5 µM lay in the range of 50 to 75%.
Still for that read-out and setting: in the case of `Cc1cc(N2CCN(C(=O)C3CCCN(S(=O)(=O)c4ccc(C#N)cc4)C3)CC2)c2ccccc2n1` (stereo not drawn) [Formula 35, 4-(3-(1-(2-methylquinolin-4-yl)piperazine-4-carbonyl)piperidin-1-ylsulfonyl)benzonitrile] it was 50 to 75%.
Take `O=C(C1CCCN(S(=O)(=O)c2ccc(Oc3ccccc3)cc2)C1)N1CCN(c2ccnc3cc(Cl)ccc23)CC1` (stereo not drawn) [Formula 9, (4-(7-chloroquinolin-4-yl)piperazin-1-yl) (1-((4-phenoxyphenyl)sulfonyl)piperidin-3-yl) methanone]: the inhibition at 5 µM was in the range of 50 to 75%.
On the same count and under the same terms, the result for `O=C(C1CCCN(S(=O)(=O)c2ccc(-c3ccccc3)cc2)C1)N1CCN(c2ccnc3cc(Cl)ccc23)CC1` (stereo not drawn) [Formula 13, (4-(7-chloroquinolin-4-yl)piperazin-1-yl) (1-(4-phenylbenzenesulfonyl)piperidin-3-yl) methanone] reads 50 to 75%.
Turning to `COc1ccc2c(N3CCN(C(=O)C4CCCN(S(=O)(=O)c5ccc(O)cc5)C4)CC3)ccnc2c1` (stereo not drawn) [Formula 91, (1-(4-hydroxyphenylsulfonyl)piperidin-3-yl) (4-(7-methoxyquinolin-4-yl)piperazin-1-yl)methanone], the inhibition at 5 µM was 50 to 75%.
Regarding `COc1ccc(S(=O)(=O)N2CCCC(C(=O)N3CCN(c4cc(C)nc5ccccc45)CC3)C2)cc1` (stereo not drawn) [Formula 29, (1-(4-methoxyphenylsulfonyl)piperidin-3-yl) (4-(2-methylquinolin-4-yl)piperazin-1-yl)methanone], the inhibition at 5 µM fell in the range of 50 to 75%.
The same measure, in the same setting: the result for `CC(=O)Nc1ccc(S(=O)(=O)N2CCC[C@H](C(=O)N3CCN(c4cc(C)nc5ccccc45)CC3)C2)cc1` [Formula 17, (S)—N-(4-((3-(4-(2-methylquinolin-4-yl)piperazine-1-carbonyl)piperidin-1-yl)sulfonyl)phenyl) acetamide] reads 50 to 75%; that for `O=C([C@@H]1CCCN(S(=O)(=O)c2ccc(O)cc2)C1)N1CCN(c2cc(C(F)(F)F)nc3ccccc23)CC1` [Formula 69, (R)-(1-(4-hydroxyphenylsulfonyl)piperidin-3-yl) (4-(2-(trifluoromethyl)quinolin-4-yl)piperazin-1-yl) methanone], 50 to 75%.

The record behind these values is patent US12479821B2 (MBD CO., LTD., priority 2019, dated 2025).
